Laboratory results from ChEMBL document CHEMBL1201862, “PubChem BioAssay data set” (2004).
Activity calls are given as the source filed them.

Tests used:
Trypsin = Trypsin (Sus scrofa, UniProt P00761); test: trypsin protease activity blockade – biochemical, quenched peptide fluorescence, cherry-pick, selectivity assay for Rce1 protease inhibitor project, dose response (AID 488789)
CAAX prenyl protease 2 [1] = molecular target: T1, CAAX prenyl protease 2 (Saccharomyces cerevisiae S288c, UniProt Q03530); type: biochemical
T1 sequence (Q03530 whole entry): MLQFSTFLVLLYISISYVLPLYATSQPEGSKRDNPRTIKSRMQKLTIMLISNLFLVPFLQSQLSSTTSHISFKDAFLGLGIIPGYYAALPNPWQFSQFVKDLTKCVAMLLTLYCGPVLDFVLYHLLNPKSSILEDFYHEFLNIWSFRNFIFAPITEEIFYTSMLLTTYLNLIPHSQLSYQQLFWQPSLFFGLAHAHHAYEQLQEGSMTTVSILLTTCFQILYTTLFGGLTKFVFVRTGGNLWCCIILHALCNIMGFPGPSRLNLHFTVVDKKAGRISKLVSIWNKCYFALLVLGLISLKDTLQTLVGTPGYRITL

CAAX prenyl protease 2 [2] = molecular target: T2, CAAX prenyl protease 2 (Homo sapiens, UniProt Q9Y256); test: inhibition of Ras-converting CAAX protease Rce1 – biochemical, yeast membranes, quenched-peptide fluorescence, cherry-pick, dose response (AID 588849)
T2 sequence (Q9Y256 whole entry): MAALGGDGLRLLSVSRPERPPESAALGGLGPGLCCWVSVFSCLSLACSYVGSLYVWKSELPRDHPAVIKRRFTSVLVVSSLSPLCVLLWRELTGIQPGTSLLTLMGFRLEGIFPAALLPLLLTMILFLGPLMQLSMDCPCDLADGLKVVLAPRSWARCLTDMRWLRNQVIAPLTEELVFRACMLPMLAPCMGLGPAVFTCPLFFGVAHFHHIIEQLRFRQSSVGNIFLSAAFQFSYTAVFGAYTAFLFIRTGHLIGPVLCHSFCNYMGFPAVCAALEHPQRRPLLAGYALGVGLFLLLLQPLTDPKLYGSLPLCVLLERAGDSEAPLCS

[3] = microbe, parasite or virus in culture; type: functional; conditions: Mycobacterium tuberculosis
HeLa = test: ATP-based viability loss in HeLa cells – cell-based, CellTiter-Glo luminescence, cherry-pick samples, cytotoxicity control for MITF activator project, dose response (AID 540259); type: functional; conditions: Homo sapiens
[4] = molecular target: T3, RNA-binding protein pos-1 (Caenorhabditis elegans, UniProt G5EF15); test: disruptors of C. elegans POS-1 RNA interaction – biochemical, fluorescence polarization, dose response (AID 1964);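 also: purified POS-1 fused to maltose binding protein made in E. coli; potency of compounds blocking POS-1 binding to fluorescent RNA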
T3 sequence (G5EF15 whole entry): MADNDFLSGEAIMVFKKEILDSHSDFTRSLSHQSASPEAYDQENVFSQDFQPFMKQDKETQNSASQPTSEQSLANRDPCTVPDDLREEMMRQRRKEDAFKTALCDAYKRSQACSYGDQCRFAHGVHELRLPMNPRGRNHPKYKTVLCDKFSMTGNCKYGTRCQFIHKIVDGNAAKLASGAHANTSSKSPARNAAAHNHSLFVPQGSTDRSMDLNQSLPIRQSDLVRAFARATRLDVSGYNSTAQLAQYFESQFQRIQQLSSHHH

[5] = tested on: Streptococcus sp. 'group A'; test: Streptococcus pyogenes SK(-)GAS viability under kanamycin – luminescence, BacTiterGlo, confirmation, counter-screen for streptokinase expression inhibitor project, dose response (AID 1900); type: functional, organism-based
[6] = molecular target: T4, Zinc finger protein mex-5 (Caenorhabditis elegans, UniProt Q9XUB2); test: potency of MEX-5 RNA-binding blockers – biochemical, C. elegans, fluorescence polarization, dose response (AID 1960)
T4 sequence (Q9XUB2 whole entry): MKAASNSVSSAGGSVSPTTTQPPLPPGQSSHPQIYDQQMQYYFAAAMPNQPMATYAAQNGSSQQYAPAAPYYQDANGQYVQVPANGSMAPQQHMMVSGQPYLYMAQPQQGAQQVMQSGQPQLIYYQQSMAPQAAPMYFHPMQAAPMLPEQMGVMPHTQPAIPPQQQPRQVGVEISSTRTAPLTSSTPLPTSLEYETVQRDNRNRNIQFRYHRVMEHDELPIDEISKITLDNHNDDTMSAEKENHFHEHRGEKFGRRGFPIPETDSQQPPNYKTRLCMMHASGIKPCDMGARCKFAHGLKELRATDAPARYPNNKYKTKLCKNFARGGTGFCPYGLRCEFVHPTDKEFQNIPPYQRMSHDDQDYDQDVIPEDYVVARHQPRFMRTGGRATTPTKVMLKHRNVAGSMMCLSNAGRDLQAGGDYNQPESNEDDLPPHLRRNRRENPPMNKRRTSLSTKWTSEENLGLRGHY

Streptococcus = test: GAS UMAA2166 growth inhibition – luminescence, BacTiterGlo, counter-screen for streptokinase expression inhibitor project, dose response (AID 1915); type: functional, organism-based;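 also: potency for reduction of bacterial viability or growth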

Sequence of Trypsin (P00761 whole entry): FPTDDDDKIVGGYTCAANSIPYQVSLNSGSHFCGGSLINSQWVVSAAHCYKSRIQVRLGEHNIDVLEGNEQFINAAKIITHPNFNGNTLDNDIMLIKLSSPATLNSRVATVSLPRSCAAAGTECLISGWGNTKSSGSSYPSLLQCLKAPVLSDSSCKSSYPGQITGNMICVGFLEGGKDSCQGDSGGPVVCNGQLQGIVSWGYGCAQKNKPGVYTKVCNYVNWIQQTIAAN

With `CC(C)C(=O)Nc1c2c(nc3ccccc13)N(C)CC2` the AC50 (Trypsin) was 12.8 µM (active), the AC50 (CAAX prenyl protease 2 [1]) was 36.2 µM (active) and the AC50 (CAAX prenyl protease 2 [2]) was 24 µM (active).
For `CC(C)c1ccc2nc(N)sc2c1`, the CC50 [3] was > 40 µM (active) and the AC50 (HeLa) was 54.4 µM (active).
With `COc1ccc(/C=C/c2ccc3c(Br)ccc(O)c3n2)cc1` the EC50 [4] was 117 µM (active), the EC50 [5] was 0.923 µM (active) and the EC50 [6] was > 300 µM (not active). For the same molecule, the EC50 (Streptococcus) was 1.66 µM (active) and the AC50 (HeLa) was 35.9 µM (active).
In the case of `CCn1nnnc1SCC(=O)Nc1nc(C)c(C)s1`, the AC50 (CAAX prenyl protease 2 [2]) was 9.77 µM (active).
